Like-named read-outs stand apart in the source and are kept apart here.
How the values were obtained:
ROCK1 = target: T1, ROCK1 (Homo sapiens, UniProt Q13464); experiment: Rho kinase inhibition assay (IMAP fluorescence polarization), ROCK1; assay type: biochemical;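 further: kinase reaction run 60 min at room temperature, then phosphorylated substrate captured on IMAP beads for 30 min, with fluorescence polarization read in mP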
T1 construct: purchased Upstate/Chemicon 14-601
Procedure: (§1) Following the pre-incubation, 10 μM ATP was added to initiate the reaction. After 60 minutes at room temperature, Molecular Devices IMAP™ binding solution was added to bind phosphorylated substrate. After 30 minutes of incubation in the presence of the IMAP™ beads, the fluorescence polarization was read and the ratio was reported as mP. IC50 values for compounds and EC50 values for ATP were calculated using the Prism software from Graphpad.

ROCK2 = target: T2, ROCK2 (Homo sapiens, UniProt O75116); experiment: Rho kinase inhibition assay (IMAP fluorescence polarization), ROCK2; assay type: biochemical;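 further: kinase reaction started with 10 µM ATP and run 60 min at room temperature, then phosphorylated substrate captured on IMAP beads for 30 min and fluorescence polarization read in mP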
T2 construct: purchased Upstate/Chemicon 14-451
T2 sequence (O75116 11-552 limits assumed): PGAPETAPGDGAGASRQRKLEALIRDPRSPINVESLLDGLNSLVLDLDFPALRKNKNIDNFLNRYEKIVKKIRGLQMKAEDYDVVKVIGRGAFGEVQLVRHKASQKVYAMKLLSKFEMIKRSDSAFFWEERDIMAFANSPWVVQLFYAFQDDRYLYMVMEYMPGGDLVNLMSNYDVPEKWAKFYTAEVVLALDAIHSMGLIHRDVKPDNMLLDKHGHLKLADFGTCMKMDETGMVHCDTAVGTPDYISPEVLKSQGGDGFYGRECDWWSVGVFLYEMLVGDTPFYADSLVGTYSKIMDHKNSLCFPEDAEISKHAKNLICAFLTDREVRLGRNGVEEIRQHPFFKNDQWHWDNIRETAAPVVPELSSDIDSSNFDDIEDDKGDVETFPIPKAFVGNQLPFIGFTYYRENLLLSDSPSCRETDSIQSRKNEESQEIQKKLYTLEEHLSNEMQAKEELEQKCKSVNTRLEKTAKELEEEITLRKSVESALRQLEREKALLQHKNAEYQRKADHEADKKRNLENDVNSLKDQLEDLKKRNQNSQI
Procedure: as §1

[1] = 10 μM ATP, read-out: ROCK2 Ki, Avg

T1 sequence (Q13464 17-535 limits assumed): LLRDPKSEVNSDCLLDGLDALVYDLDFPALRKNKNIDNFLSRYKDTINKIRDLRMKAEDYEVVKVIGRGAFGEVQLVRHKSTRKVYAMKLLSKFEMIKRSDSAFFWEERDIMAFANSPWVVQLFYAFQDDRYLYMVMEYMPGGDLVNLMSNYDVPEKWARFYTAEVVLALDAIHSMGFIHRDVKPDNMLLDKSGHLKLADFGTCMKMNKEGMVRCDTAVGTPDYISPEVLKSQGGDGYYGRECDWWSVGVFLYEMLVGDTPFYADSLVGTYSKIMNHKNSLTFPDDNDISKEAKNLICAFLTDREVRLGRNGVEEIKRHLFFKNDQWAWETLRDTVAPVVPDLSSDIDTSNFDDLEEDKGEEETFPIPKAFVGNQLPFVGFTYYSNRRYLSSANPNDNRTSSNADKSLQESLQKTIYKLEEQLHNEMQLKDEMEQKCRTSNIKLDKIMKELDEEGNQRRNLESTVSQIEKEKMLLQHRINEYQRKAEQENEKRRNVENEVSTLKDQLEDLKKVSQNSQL

SMILES: COc1ccc(CN2CCC[C@H](Nc3ccc4[nH]ncc4c3)C2)cc1NS(C)(=O)=O [Compound 1.234, (S)-N-(5-((3-(1H-indazol-5-ylamino)piperidin-1-yl)methyl)-2-methoxyphenyl)methanesulfonamide]
- Ki (ROCK1; Avg, 10 μM ATP): 1740 nM
- Ki (ROCK2; [1]): 166 nM

SMILES: Brc1cccc(CN2CCC[C@@H](Nc3ccc4[nH]ncc4c3)C2)c1 [Compound 1.210, (R)-N-(1-(3-bromobenzyl)piperidin-3-yl)-1H-indazol-5-amine]
- Ki (ROCK1; Avg, 10 μM ATP): 95.1 nM
- Ki (ROCK2; [1]): 25.5 nM

SMILES: CCOc1cccc(CN2CCC[C@@H](Nc3ccc4[nH]ncc4c3)C2)c1 [Compound 1.203, (R)-N-(1-(3-ethoxybenzyl)piperidin-3-yl)-1H-indazol-5-amine]
- Ki (ROCK1; Avg, 10 μM ATP): 329 nM
- Ki (ROCK2; [1]): 41.6 nM

SMILES: Cc1ccc(CN2CC[C@@H](Nc3cccc4cnccc34)C2)cc1OCC(N)=O [Compound 2.099, (R)-2-(5-((3-(isoquinolin-5-ylamino)pyrrolidin-1-yl)methyl)-2-methylphenoxy)acetamide]
- Ki (ROCK1; Avg, 10 μM ATP): 15 nM
- Ki (ROCK1; average Ki): 15 nM
- Ki (ROCK2; [1]): 3.8 nM
- Ki (ROCK2; average Ki, read-out: ROCK2 Ki): 3.8 nM

SMILES: OCCCOc1cccc(CN2CCC[C@@H](Nc3ccc4[nH]ncc4c3)C2)c1 [Compound 1.231, (R)-3-(3-((3-(1H-indazol-5-ylamino)piperidin-1-yl)methyl)phenoxy)propan-1-ol]
- Ki (ROCK1; Avg, 10 μM ATP): 305 nM
- Ki (ROCK2; [1]): 60.3 nM

SMILES: CC(C)(C)OC(=O)COc1cccc(CN2CCC[C@H](Nc3ccc4[nH]ncc4c3)C2)c1 [Compound 1.187, (S)-tert-butyl 2-(3-((3-(1H-indazol-5-ylamino)piperidin-1-yl)methyl)phenoxy)acetate]
- Ki (ROCK1; Avg, 10 μM ATP): 296 nM
- Ki (ROCK2; [1]): 17.3 nM

SMILES: Clc1ccc(CN2CCC[C@H](Nc3ccc4[nH]ncc4c3)C2)cc1Cl [Compound 1.080, (S)-N-(1-(3,4-dichlorobenzyl)piperidin-3-yl)-1H-indazol-5-amine]
- Ki (ROCK1; Avg, 10 μM ATP): 131 nM
- Ki (ROCK2; [1]): 15.2 nM

SMILES: O=C(OCCOc1cccc(CN2CCC[C@H](Nc3ccc4[nH]ncc4c3)C2)c1)c1ccccc1 [Compound 1.224, (S)-2-(3-((3-(1H-indazol-5-ylamino)piperidin-1-yl)methyl)phenoxy)ethyl benzoate]
- Ki (ROCK1; Avg, 10 μM ATP): 487 nM
- Ki (ROCK2; [1]): 77.5 nM

SMILES: c1cc(N[C@@H]2CCN(Cc3cncnc3)C2)c2ccncc2c1 [Compound 2.084, (R)-N-(1-(pyrimidin-5-ylmethyl)pyrrolidin-3-yl)isoquinolin-5-amine]
- Ki (ROCK1; Avg, 10 μM ATP): 1170 nM
- Ki (ROCK2; [1]): 350 nM

SMILES: COc1c(CN2CCC[C@H](Nc3ccc4[nH]ncc4c3)C2)cccc1NS(C)(=O)=O [Compound 1.280, (S)-N-(3-((3-(1H-indazol-5-ylamino)piperidin-1-yl)methyl)-2-methoxyphenyl)methanesulfonamide]
- Ki (ROCK1; Avg, 10 μM ATP): 746 nM
- Ki (ROCK2; [1]): 38 nM

SMILES: c1csc(CN2CC[C@@H](Nc3cccc4cnccc34)C2)c1 [Compound 2.090, (R)-N-(1-(thiophen-2-ylmethyl)pyrrolidin-3-yl)isoquinolin-5-amine]
- Ki (ROCK1; Avg, 10 μM ATP): 53.3 nM
- Ki (ROCK2; [1]): 19.5 nM

SMILES: c1ccc(Cn2ccnc2CN2CCC[C@@H](Nc3ccc4[nH]ncc4c3)C2)cc1 [Compound 1.263, (R)-N-(1-((1-benzyl-1H-imidazol-2-yl)methyl)piperidin-3-yl)-1H-indazol-5-amine]
- Ki (ROCK1; Avg, 10 μM ATP): 2130 nM
- Ki (ROCK2; [1]): 453 nM

SMILES: c1cc(N[C@@H]2CCN(Cc3ccncn3)C2)c2ccncc2c1 [Compound 2.083, (R)-N-(1-(pyrimidin-4-ylmethyl)pyrrolidin-3-yl)isoquinolin-5-amine]
- Ki (ROCK1; Avg, 10 μM ATP): 1880 nM
- Ki (ROCK2; [1]): 858 nM

SMILES: CCSc1ccc(CN2CCC[C@H](Nc3ccc4[nH]ncc4c3)C2)cc1 [Compound 1.168, (S)-N-(1-(4-(ethylthio)benzyl)piperidin-3-yl)-1H-indazol-5-amine]
- Ki (ROCK1; Avg, 10 μM ATP): 162 nM
- Ki (ROCK2; [1]): 22.9 nM

SMILES: O=C(COc1cccc(CN2CC[C@@H](Nc3cccc4cnccc34)C2)c1)N1CCOCC1 [Compound 2.043, (R)-2-(3-((3-(isoquinolin-5-ylamino)pyrrolidin-1-yl)methyl)phenoxy)-1-morpholinoethanone]
- Ki (ROCK1; Avg, 10 μM ATP): 49.4 nM
- Ki (ROCK2; [1]): 21.5 nM

SMILES: FC(F)(F)c1cccc(CN2CCC[C@@H](Nc3ccc4[nH]ncc4c3)C2)c1 [Compound 1.190, (R)-N-(1-(3-(trifluoromethyl)benzyl)piperidin-3-yl)-1H-indazol-5-amine]
- Ki (ROCK1; Avg, 10 μM ATP): 326 nM
- Ki (ROCK2; [1]): 71.8 nM

SMILES: CCOC(=O)c1ccc(CN2CCC[C@H](Nc3ccc4[nH]ncc4c3)C2)cc1 [Compound 1.216, (S)-ethyl 4-((3-(1H-indazol-5-ylamino)piperidin-1-yl)methyl)benzoate]
- Ki (ROCK1; Avg, 10 μM ATP): 1890 nM
- Ki (ROCK2; [1]): 403 nM

SMILES: OC[C@@H](O)COc1cccc(CN2CCC[C@@H](Nc3ccc4[nH]ncc4c3)C2)c1 [Compound 1.115, (R)-3-(3-(((R)-3-(1H-indazol-5-ylamino)piperidin-1-yl)methyl)phenoxy)propane-1,2-diol]
- Ki (ROCK1; Avg, 10 μM ATP): 89.7 nM
- Ki (ROCK2; [1]): 20.6 nM

SMILES: Cc1c(CN2CCC[C@H](Nc3ccc4[nH]ncc4c3)C2)cccc1NS(C)(=O)=O [Compound 1.274, (S)-N-(3-((3-(1H-indazol-5-ylamino)piperidin-1-yl)methyl)-2-methylphenyl)methanesulfonamide]
- Ki (ROCK1; Avg, 10 μM ATP): 223 nM
- Ki (ROCK2; [1]): 10.7 nM

SMILES: CS(=O)(=O)N1CCCc2cc(CN3CC[C@@H](Nc4cccc5cnccc45)C3)ccc21 [Compound 2.070, (R)-N-(1-((1-(methylsulfonyl)-1,2,3,4-tetrahydroquinolin-6-yl)methyl)pyrrolidin-3-yl)isoquinolin-5-amine]
- Ki (ROCK1; Avg, 10 μM ATP): 286 nM
- Ki (ROCK2; [1]): 48.4 nM

SMILES: c1ccc(Cn2cc(CN3CCC[C@@H](Nc4ccc5[nH]ncc5c4)C3)c3ccccc32)cc1 [Compound 1.271, (R)-N-(11-((1-benzyl-1H-indol-3-yl)methyl)piperidin-3-yl)-1H-indazol-5-amine]
- Ki (ROCK1; Avg, 10 μM ATP): 332 nM
- Ki (ROCK2; [1]): 77.7 nM

SMILES: Cc1ccc(CN2CC[C@@H](Nc3cccc4cnccc34)C2)cc1OCC(=O)OC(C)(C)C [Compound 2.071, (R)-tert-butyl 2-(5-((3-(isoquinolin-5-ylamino)pyrrolidin-1-yl)methyl)-2-methylphenoxy)acetate]
- Ki (ROCK1; Avg, 10 μM ATP): 21.2 nM
- Ki (ROCK2; [1]): 11.9 nM

SMILES: CCOc1cccc(CN2CCC[C@H](Nc3ccc4[nH]ncc4c3)C2)c1 [Compound 1.179, (S)-N-(1-(3-ethoxybenzyl)piperidin-3-yl)-1H-indazol-5-amine]
- Ki (ROCK1; Avg, 10 μM ATP): 292 nM
- Ki (ROCK2; [1]): 19.3 nM

SMILES: NC(=O)COc1cccc(CN2CC[C@@H](Nc3cccc4cnccc34)C2)c1 [Compound 2.040, (R)-2-(3-((3-(isoquinolin-5-ylamino)pyrrolidin-1-yl)methyl)phenoxy)acetamide]
- Ki (ROCK1; Avg, 10 μM ATP): 59.6 nM
- Ki (ROCK2; [1]): 25.4 nM

SMILES: NC(=O)c1cccc(CN2CCC[C@@H](Nc3ccc4[nH]ncc4c3)C2)c1 [Compound 1.221, (R)-3-((3-(1H-indazol-5-ylamino)piperidin-1-yl)methyl)benzamide]
- Ki (ROCK1; Avg, 10 μM ATP): 264 nM
- Ki (ROCK2; [1]): 30 nM

SMILES: CC(CN1CCC[C@@H](Nc2ccc3[nH]ncc3c2)C1)c1ccccc1 (stereo partly drawn) [Compound 1.251, N-((3R)-1-(2-phenylpropyl)piperidin-3-yl)-1H-indazol-5-amine]
- Ki (ROCK1; Avg, 10 μM ATP): 207 nM
- Ki (ROCK2; [1]): 49.2 nM

SMILES: FC(F)(F)c1cccc(CN2CC[C@@H](Nc3ccc4[nH]ncc4c3)C2)c1 [Compound 1.243, (R)-N-(1-(3-(trifluoromethyl)benzyl)pyrrolidin-3-yl)-1H-indazol-5-amine]
- Ki (ROCK1; Avg, 10 μM ATP): 219 nM
- Ki (ROCK2; [1]): 84.3 nM

From patent US20090325959A1 (priority 2008, published 2009)
